{"source": "patent US7138361B2", "about": "“Herbicidal heterocycles” (E. I. du Pont de Nemours and Company, priority 2000, dated 2006)", "type_in_all_cases": "in vivo", "key": {"[1]": {"test_system": "Surinam grass (Brachiaria decumbens)", "assay": "Test B postemergence", "settings": "13 to 15 days", "how_it_was_run": "(§1)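 Greenhouse test: chemicals are formulated in a surfactant-containing non-phytotoxic solvent and applied either preemergence to planted seeds or postemergence to plants 2 to 18 cm tall. Response is rated visually versus controls after 13 to 15 days, 0 meaning no effect and 100 complete control.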"}, "[2]": {"test_system": "barnyardgrass (Echinochloa crus-galli)", "assay": "Test B postemergence", "settings": "13 to 15 days", "how_it_was_run": "as §1"}, "[3]": {"test_system": "blackgrass (Alopecurus myosuroides)", "assay": "Test B postemergence", "settings": "13 to 15 days", "how_it_was_run": "as §1"}, "[4]": {"test_system": "cocklebur (Xanthium strumarium)", "assay": "Test B postemergence", "settings": "13 to 15 days", "how_it_was_run": "as §1"}, "[5]": {"test_system": "corn (Zea mays)", "assay": "Test B postemergence", "settings": "13 to 15 days", "how_it_was_run": "as §1"}, "[6]": {"test_system": "crabgrass (Digitaria sanguinalis)", "assay": "Test B postemergence", "settings": "13 to 15 days", "how_it_was_run": "as §1"}, "[7]": {"test_system": "giant foxtail (Setaria faberii)", "assay": "Test B postemergence", "settings": "13 to 15 days", "how_it_was_run": "as §1"}, "[8]": {"test_system": "lambsquarters (Chenopodium album)", "assay": "Test B postemergence", "settings": "13 to 15 days", "how_it_was_run": "as §1"}, "[9]": {"test_system": "morning glory (Ipomoea hederacea)", "assay": "Test B postemergence", "settings": "13 to 15 days", "how_it_was_run": "as §1"}, "[10]": {"test_system": "pigweed (Amaranthus retroflexus)", "assay": "Test B postemergence", "settings": "13 to 15 days", "how_it_was_run": "as §1"}, "[11]": {"test_system": "velvetleaf (Abutilon theophrasti)", "assay": "Test B postemergence", "settings": "13 to 15 days", "how_it_was_run": "as §1"}, "[12]": {"test_system": "wheat (Triticum aestivum)", "assay": "Test B postemergence", "settings": "13 to 15 days", "how_it_was_run": "as §1"}, "[13]": {"test_system": "wild oat (Avena fatua)", "assay": "Test B postemergence", "settings": "13 to 15 days", "how_it_was_run": "as §1"}, "[14]": {"test_system": "Surinam grass (Brachiaria decumbens)", "assay": "Test B preemergence", "how_it_was_run": "as §1"}, "[15]": {"test_system": "barnyardgrass (Echinochloa crus-galli)", "assay": "Test B preemergence", "how_it_was_run": "as §1"}, "[16]": {"test_system": "cocklebur (Xanthium strumarium)", "assay": "Test B preemergence", "how_it_was_run": "as §1"}, "[17]": {"test_system": "corn (Zea mays)", "assay": "Test B preemergence", "how_it_was_run": "as §1"}, "[18]": {"test_system": "crabgrass (Digitaria sanguinalis)", "assay": "Test B preemergence", "how_it_was_run": "as §1"}, "[19]": {"test_system": "giant foxtail (Setaria faberii)", "assay": "Test B preemergence", "how_it_was_run": "as §1"}, "[20]": {"test_system": "lambsquarters (Chenopodium album)", "assay": "Test B preemergence", "how_it_was_run": "as §1"}, "[21]": {"test_system": "morning glory (Ipomoea hederacea)", "assay": "Test B preemergence", "how_it_was_run": "as §1"}, "[22]": {"test_system": "pigweed (Amaranthus retroflexus)", "assay": "Test B preemergence", "how_it_was_run": "as §1"}, "[23]": {"test_system": "rice (Oryza saliva)", "assay": "Test B preemergence", "how_it_was_run": "as §1"}, "[24]": {"test_system": "velvetleaf (Abutilon theophrasti)", "assay": "Test B preemergence", "how_it_was_run": "as §1"}, "[25]": {"test_system": "barnyardgrass (Echinochloa crus-galli)", "assay": "Test C flooded paddy test", "settings": "for Barnyardgrass plant response rating: Flooded Paddy, scale 0 to 100, 0 no effect, 100 complete control; for Plant response rating, Barnyardgrass: flooded paddy test, scale 0 to 100 (0 no effect, 100 complete control)", "how_it_was_run": "(§2)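 Visually assessed vs untreated controls 12–14 d post-treatment (greenhouse). Flooded paddy plants were at the 2-leaf stage; scale 0 = no effect, 100 = complete control.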"}, "[26]": {"test_system": "duck salad (Heteranthera limosa)", "assay": "Test C flooded paddy test", "settings": "for Ducksalad plant response rating: Flooded Paddy, scale 0 to 100, 0 no effect, 100 complete control; for Plant response rating, Ducksalad: flooded paddy test, scale 0 to 100 (0 no effect, 100 complete control)", "how_it_was_run": "as §2"}, "[27]": {"test_system": "rice (Oryza saliva)", "assay": "Test C flooded paddy test", "settings": "for Rice plant response rating: Flooded Paddy, scale 0 to 100, 0 no effect, 100 complete control; for Plant response rating, Rice: flooded paddy test, scale 0 to 100 (0 no effect, 100 complete control)", "how_it_was_run": "as §2"}, "[28]": {"test_system": "smallflower flatsedge (Cyperus difformis)", "assay": "Test C flooded paddy test", "settings": "for Flatsedge plant response rating: Flooded Paddy, scale 0 to 100, 0 no effect, 100 complete control; for Plant response rating, Flatsedge: flooded paddy test, scale 0 to 100 (0 no effect, 100 complete control)", "how_it_was_run": "as §2"}, "[29]": {"settings": "Rate 125 g/ha, scale 0 (no effect) to 100 (complete control)"}, "[30]": {"settings": "Rate 500 g/ha, scale 0 to 100, 0 is no effect, 100 is complete control"}, "[31]": {"settings": "Preemergence, Rate 500 g/ha, scale 0 to 100, 0 no effect, 100 complete control"}, "[32]": {"settings": "preemergence, Rate 125 g/ha, scale of 0 to 100 where 0 is no effect and 100 is complete control, 13 to 15 days"}}, "data": [{"smiles": "Cc1c(F)cc(N2CCC(n3ccc(C(C)(C)C)n3)C2=O)cc1Br", "note": "(stereo not shown) [Compound 78]", "values": [{"measurement": "Plant response rating, Surinam grass", "setting": "[1]; [29]", "result": 0}, {"measurement": "Plant response rating, Surinam grass", "setting": "[1]; [30]", "result": 0}, {"measurement": "Plant response rating, Barnyardgrass", "setting": "[2]; [29]", "result": 0}, {"measurement": "Plant response rating, Barnyardgrass", "setting": "[2]; [30]", "result": 0}, {"measurement": "Plant response rating, Blackgrass", "setting": "[3]; [29]", "result": 0}, {"measurement": "Plant response rating, Blackgrass", "setting": "[3]; [30]", "result": 0}, {"measurement": "Plant response rating, Cocklebur", "setting": "[4]; [29]", "result": 0}, {"measurement": "Plant response rating, Cocklebur", "setting": "[4]; [30]", "result": 20}, {"measurement": "Plant response rating, Corn", "setting": "[5]; [29]", "result": 0}, {"measurement": "Plant response rating, Corn", "setting": "[5]; [30]", "result": 0}, {"measurement": "Plant response rating, Crabgrass", "setting": "[6]; [29]", "result": 0}, {"measurement": "Plant response rating, Crabgrass", "setting": "[6]; [30]", "result": 0}, {"measurement": "Plant response rating, Foxtail, Giant", "setting": "[7]; [29]", "result": 0}, {"measurement": "Plant response rating, Foxtail, Giant", "setting": "[7]; [30]", "result": 0}, {"measurement": "Plant response rating, Lambsquarters", "setting": "[8]; [29]", "result": 0}, {"measurement": "Plant response rating, Lambsquarters", "setting": "[8]; [30]", "result": 10}, {"measurement": "Plant response rating, Morningglory", "setting": "[9]; [29]", "result": 0}, {"measurement": "Plant response rating, Morningglory", "setting": "[9]; [30]", "result": 0}, {"measurement": "Plant response rating, Pigweed", "setting": "[10]; [29]", "result": 70}, {"measurement": "Plant response rating, Pigweed", "setting": "[10]; [30]", "result": 80}, {"measurement": "Plant response rating, Velvetleaf", "setting": "[11]; [29]", "result": 0}, {"measurement": "Plant response rating, Velvetleaf", "setting": "[11]; [30]", "result": 0}, {"measurement": "Plant response rating, Wheat", "setting": "[12]; [29]", "result": 0}, {"measurement": "Plant response rating, Wheat", "setting": "[12]; [30]", "result": 0}, {"measurement": "Plant response rating, Wild Oat", "setting": "[13]; [29]", "result": 0}, {"measurement": "Plant response rating, Wild Oat", "setting": "[13]; [30]", "result": 0}, {"measurement": "Plant response rating, Surinam grass", "setting": "[14]; [31]", "result": 0}, {"measurement": "Plant response rating, Surinam grass", "setting": "[14]; [32]", "result": 0}, {"measurement": "Plant response rating, Barnyardgrass", "setting": "[15]; [31]", "result": 90}, {"measurement": "Plant response rating, Barnyardgrass", "setting": "[15]; [32]", "result": 0}, {"measurement": "Plant response rating, Cocklebur", "setting": "[16]; [31]", "result": 0}, {"measurement": "Plant response rating, Cocklebur", "setting": "[16]; [32]", "result": 0}, {"measurement": "Plant response rating, Corn", "setting": "[17]; [31]", "result": 0}, {"measurement": "Plant response rating, Corn", "setting": "[17]; [32]", "result": 0}, {"measurement": "Plant response rating, Crabgrass", "setting": "[18]; [31]", "result": 30}, {"measurement": "Plant response rating, Crabgrass", "setting": "[18]; [32]", "result": 0}, {"measurement": "Plant response rating, Foxtail, Giant", "setting": "[19]; [31]", "result": 10}, {"measurement": "Plant response rating, Foxtail, Giant", "setting": "[19]; [32]", "result": 0}, {"measurement": "Plant response rating, Lambsquarters", "setting": "[20]; [31]", "result": 100}, {"measurement": "Plant response rating, Lambsquarters", "setting": "[20]; [32]", "result": 100}, {"measurement": "Plant response rating, Morningglory", "setting": "[21]; [31]", "result": 0}, {"measurement": "Plant response rating, Morningglory", "setting": "[21]; [32]", "result": 0}, {"measurement": "Plant response rating, Pigweed", "setting": "[22]; [31]", "result": 100}, {"measurement": "Plant response rating, Pigweed", "setting": "[22]; [32]", "result": 80}, {"measurement": "Plant response rating, Rice", "setting": "[23]; [31]", "result": 0}, {"measurement": "Plant response rating, Rice", "setting": "[23]; [32]", "result": 0}, {"measurement": "Plant response rating, Velvetleaf", "setting": "[24]; [31]", "result": 0}, {"measurement": "Plant response rating, Velvetleaf", "setting": "[24]; [32]", "result": 0}, {"measurement": "Barnyardgrass plant response rating", "setting": "[25]; Rate 250 g/ha", "result": 0}, {"measurement": "Barnyardgrass plant response rating", "setting": "[25]; Rate 500 g/ha", "result": 60}, {"measurement": "Plant response rating, Barnyardgrass", "setting": "[25]; Rate 62 g/ha", "result": 0}, {"measurement": "Plant response rating, Barnyardgrass", "setting": "[25]; Rate 125 g/ha", "result": 0}, {"measurement": "Ducksalad plant response rating", "setting": "[26]; Rate 250 g/ha", "result": 0}, {"measurement": "Ducksalad plant response rating", "setting": "[26]; Rate 500 g/ha", "result": 0}, {"measurement": "Plant response rating, Ducksalad", "setting": "[26]; Rate 62 g/ha", "result": 0}, {"measurement": "Plant response rating, Ducksalad", "setting": "[26]; Rate 125 g/ha", "result": 0}, {"measurement": "Rice plant response rating", "setting": "[27]; Rate 250 g/ha", "result": 0}, {"measurement": "Rice plant response rating", "setting": "[27]; Rate 500 g/ha", "result": 0}, {"measurement": "Plant response rating, Rice", "setting": "[27]; Rate 62 g/ha", "result": 0}, {"measurement": "Plant response rating, Rice", "setting": "[27]; Rate 125 g/ha", "result": 0}, {"measurement": "Flatsedge plant response rating", "setting": "[28]; Rate 250 g/ha", "result": 0}, {"measurement": "Flatsedge plant response rating", "setting": "[28]; Rate 500 g/ha", "result": 90}, {"measurement": "Plant response rating, Flatsedge", "setting": "[28]; Rate 62 g/ha", "result": 0}, {"measurement": "Plant response rating, Flatsedge", "setting": "[28]; Rate 125 g/ha", "result": 0}]}]}
